In patent US10080366B2, “Agent for increasing sugar content in fruit” (RIKEN, priority 2012, dated 2018):
Read-outs that look alike come from different tables or passages of the source.

Tested on: fruit of grape in a farm field
Description: To the fruit of grape in a farm field before harvest, potassium hydrogen carbonate diluted with water to a concentration of 10 g/L (Table 17) or 20 g/L (Table 18) was applied three times in total at intervals of 7 days. The grape was harvested 21 days after the first application, and the masses of amino acids contained in each of the fruit of grape treated with potassium hydrogen carbonate and untreated fruit of grape were measured. In addition, the degree of increase in the concentration of each amino acid in the grape treated with potassium hydrogen carbonate in comparison with the concentration of the amino acid in the untreated grape was determined as a ratio of “the concentration of the amino acid in the grape treated with potassium hydrogen carbonate/the concentration of the amino acid in the untreated grape.” Moreover, the sugar contents in the grape treated with potassium hydrogen carbonate and the untreated grape were also measured, and the ratio (the sugar content in the grape treated with potassium hydrogen carbonate/the sugar content in the untreated grape) was determined.
Arg: arginine, GluNH2: glutamine, Orn: ornithine, Ala: alanine, NH3: ammonia, Cit: citrulline, AspNH2: asparagine, a-ABA: α-amino-n-butyric acid, Glu: glutamic acid, Asp: aspartic acid, Thr: threonine, Ser: serine, Lys: lysine, His: histidine, Gly: glycine, Phe: phenylalanine, Sar: sarcosine, Val: valine, Cys: cysteine, b-AiBA: β-aminoisobutyric acid, PEA: phosphoethanolamine, a-AAA: α-aminoadipic acid, EOHNH2: ethanolamine, b-Ala: β-alanine, Leu: leucine, g-ABA: […], Ile: isoleucine, Met: methionine, Urea: urea, Trp: tryptophan, Tyr: tyrosine, and Cysthi: cystathionine.

In the case of `O=C([O-])O.[K+]` [Potassium hydrogen carbonate, potassium hydrogen carbonate], the “Ala, Ratio treated/untreated” value (10 g/L x3) is reported as 5.229, the “Ala, Treated Mass” value (10 g/L x3) is reported as 601.952 ng and the “Arg, Ratio treated/untreated” value (10 g/L x3) is reported as 10.658. For the same compound, the “Asp, Ratio treated/untreated” value (10 g/L x3) was 2.694, the “Asp, Treated Mass” value (10 g/L x3) was 89.293 ng and the “AspNH2, Ratio treated/untreated” value (10 g/L x3) was 3.987. For the same compound, the “AspNH2, Treated Mass” value (10 g/L x3) was 14.746 ng, the “Cit, Ratio treated/untreated” value (10 g/L x3) was 4.673 and the “Cit, Treated Mass” value (10 g/L x3) was 11.464 ng. For the same compound, the “Cys, Ratio treated/untreated” value (10 g/L x3) was 1.154, the “Cys, Treated Mass” value (10 g/L x3) was 117.021 ng and the “Cysthi, Ratio treated/untreated” value (10 g/L x3) was 0.457. For the same compound, the “Cysthi, Treated Mass” value (10 g/L x3) was 1.016 ng, the “EOHNH2, Ratio treated/untreated” value (10 g/L x3) was 1.02 and the “EOHNH2, Treated Mass” value (10 g/L x3) was 53.297 ng. For the same compound, the “Glu, Ratio treated/untreated” value (10 g/L x3) was 2.915, the “Glu, Treated Mass” value (10 g/L x3) was 1091.265 ng and the “GluNH2, Ratio treated/untreated” value (10 g/L x3) was 7.046. The “GluNH2, Treated Mass” value (10 g/L x3) was 347.152 ng, the “Gly, Ratio treated/untreated” value (10 g/L x3) was 1.553 and the “Gly, Treated Mass” value (10 g/L x3) was 25.939 ng. The “His, Ratio treated/untreated” value (10 g/L x3) was 1.615, the “His, Treated Mass” value (10 g/L x3) was 96.252 ng and the “Ile, Ratio treated/untreated” value (10 g/L x3) was 0.875. The “Ile, Treated Mass” value (10 g/L x3) was 72.435 ng, the “Leu, Ratio treated/untreated” value (10 g/L x3) was 1.012 and the “Leu, Treated Mass” value (10 g/L x3) was 110.503 ng. The “Lys, Ratio treated/untreated” value (10 g/L x3) was 1.768, the “Lys, Treated Mass” value (10 g/L x3) was 18.865 ng and the “Met, Ratio treated/untreated” value (10 g/L x3) was 0.839. The “Met, Treated Mass” value (10 g/L x3) was 6.131 ng, the “NH3, Ratio treated/untreated” value (10 g/L x3) was 4.713 and the “NH3, Treated Mass” value (10 g/L x3) was 438.689 ng. The “Orn, Ratio treated/untreated” value (10 g/L x3) was 6.692, the “Orn, Treated Mass” value (10 g/L x3) was 23.882 ng and the “PEA, Ratio treated/untreated” value (10 g/L x3) was 1.032. The “PEA, Treated Mass” value (10 g/L x3) was 87.942 ng, the “Phe, Ratio treated/untreated” value (10 g/L x3) was 1.527 and the “Phe, Treated Mass” value (10 g/L x3) was 51.201 ng. The “Sar, Ratio treated/untreated” value (10 g/L x3) was 1.271, the “Sar, Treated Mass” value (10 g/L x3) was 62.178 ng and the “Ser, Ratio treated/untreated” value (10 g/L x3) was 2.585. The “Ser, Treated Mass” value (10 g/L x3) was 360.511 ng, the “Sugar content, Ratio treated/untreated” value (10 g/L x3) was 1.06 and the “Sugar content, Treated” value (10 g/L x3) was 22.6%. For the same compound, the “Thr, Ratio treated/untreated” value (10 g/L x3) was 2.615, the “Thr, Treated Mass” value (10 g/L x3) was 342.259 ng and the “Total, Ratio treated/untreated” value (10 g/L x3) was 2.203. For the same compound, the “Total, Treated Mass” value (10 g/L x3) was 1082.09 ng, the “Trp, Ratio treated/untreated” value (10 g/L x3) was 0.641 and the “Trp, Treated Mass” value (10 g/L x3) was 4.840 ng. The “Tyr, Ratio treated/untreated” value (10 g/L x3) was 0.59, the “Tyr, Treated Mass” value (10 g/L x3) was 17.739 ng and the “Urea, Ratio treated/untreated” value (10 g/L x3) was 0.757. For the same compound, the “Urea, Treated Mass” value (10 g/L x3) was 105.062 ng, the “Val, Ratio treated/untreated” value (10 g/L x3) was 1.256 and the “Val, Treated Mass” value (10 g/L x3) was 191.700 ng. For the same compound, the “a-AAA, Ratio treated/untreated” value (10 g/L x3) was 1.031, the “a-AAA, Treated Mass” value (10 g/L x3) was 3.261 ng and the “a-ABA, Ratio treated/untreated” value (10 g/L x3) was 3.246. For the same compound, the “a-ABA, Treated Mass” value (10 g/L x3) was 9.038 ng, the “b-AiBA, Ratio treated/untreated” value (10 g/L x3) was 1.129 and the “b-AiBA, Treated Mass” value (10 g/L x3) was 9.663 ng. The “b-Ala, Ratio treated/untreated” value (10 g/L x3) was 1.019, the “b-Ala, Treated Mass” value (10 g/L x3) was 197.064 ng and the “g-ABA, Ratio treated/untreated” value (10 g/L x3) was 0.891. The “g-ABA, Treated Mass” value (10 g/L x3) was 637.915 ng, the “Arg, Treated Mass” value (10 g/L x3, harvest 21 days after first application) was 1383.991 ng and the “1Mehis, Ratio treated/untreated” value (20 g/L x3) was 1.167. For the same compound, the “1Mehis, Treated Mass” value (20 g/L x3) was 1.184 ng, the “Ala, Ratio treated/untreated” value (20 g/L x3) was 6.161 and the “Ala, Treated Mass” value (20 g/L x3) was 709.236 ng. For the same compound, the “Arg, Ratio treated/untreated” value (20 g/L x3) was 15.532, the “Asp, Ratio treated/untreated” value (20 g/L x3) was 2.614 and the “Asp, Treated Mass” value (20 g/L x3) was 86.648 ng. For the same compound, the “AspNH2, Ratio treated/untreated” value (20 g/L x3) was 7.214, the “AspNH2, Treated Mass” value (20 g/L x3) was 26.684 ng and the “Cit, Ratio treated/untreated” value (20 g/L x3) was 12.285. For the same compound, the “Cit, Treated Mass” value (20 g/L x3) was 30.134 ng, the “Cys, Ratio treated/untreated” value (20 g/L x3) was 1.41 and the “Cys, Treated Mass” value (20 g/L x3) was 142.979 ng. The “Cysthi, Ratio treated/untreated” value (20 g/L x3) was 0.3, the “Cysthi, Treated Mass” value (20 g/L x3) was 0.667 ng and the “EOHNH2, Ratio treated/untreated” value (20 g/L x3) was 1.164. The “EOHNH2, Treated Mass” value (20 g/L x3) was 76.497 ng, the “Glu, Ratio treated/untreated” value (20 g/L x3) was 1.85 and the “Glu, Treated Mass” value (20 g/L x3) was 693.282 ng. For the same compound, the “GluNH2, Ratio treated/untreated” value (20 g/L x3) was 11.395, the “GluNH2, Treated Mass” value (20 g/L x3) was 561.408 ng and the “Gly, Ratio treated/untreated” value (20 g/L x3) was 1.847. For the same compound, the “Gly, Treated Mass” value (20 g/L x3) was 34.546 ng, the “His, Ratio treated/untreated” value (20 g/L x3) was 2.312 and the “His, Treated Mass” value (20 g/L x3) was 137.818 ng. For the same compound, the “Ile, Ratio treated/untreated” value (20 g/L x3) was 1.149, the “Ile, Treated Mass” value (20 g/L x3) was 95.120 ng and the “Leu, Ratio treated/untreated” value (20 g/L x3) was 1.387. The “Leu, Treated Mass” value (20 g/L x3) was 151.405 ng, the “Lys, Ratio treated/untreated” value (20 g/L x3) was 2.452 and the “Lys, Treated Mass” value (20 g/L x3) was 26.170 ng. For the same compound, the “Met, Ratio treated/untreated” value (20 g/L x3) was 1.325, the “Met, Treated Mass” value (20 g/L x3) was 9.698 ng and the “NH3, Ratio treated/untreated” value (20 g/L x3) was 4.845. For the same compound, the “NH3, Treated Mass” value (20 g/L x3) was 450.976 ng, the “Orn, Ratio treated/untreated” value (20 g/L x3) was 11.668 and the “Orn, Treated Mass” value (20 g/L x3) was 41.643 ng. For the same compound, the “PEA, Ratio treated/untreated” value (20 g/L x3) was 1.644, the “PEA, Treated Mass” value (20 g/L x3) was 140.112 ng and the “Phe, Ratio treated/untreated” value (20 g/L x3) was 1.961. For the same compound, the “Phe, Treated Mass” value (20 g/L x3) was 65.750 ng, the “Sar, Ratio treated/untreated” value (20 g/L x3) was 1.5191 and the “Sar, Treated Mass” value (20 g/L x3) was 74.309 ng. The “Ser, Ratio treated/untreated” value (20 g/L x3) was 3.553, the “Ser, Treated Mass” value (20 g/L x3) was 495.547 ng and the “Sugar content, Ratio treated/untreated” value (20 g/L x3) was 1.24. For the same compound, the “Sugar content, Treated” value (20 g/L x3) was 25.9%, the “Thr, Ratio treated/untreated” value (20 g/L x3) was 3.174 and the “Thr, Treated Mass” value (20 g/L x3) was 415.421 ng. For the same compound, the “Total, Ratio treated/untreated” value (20 g/L x3) was 2.525, the “Total, Treated Mass” value (20 g/L x3) was 1239.923 ng and the “Trp, Ratio treated/untreated” value (20 g/L x3) was 0.973. For the same compound, the “Trp, Treated Mass” value (20 g/L x3) was 7.348 ng, the “Tyr, Ratio treated/untreated” value (20 g/L x3) was 0.994 and the “Tyr, Treated Mass” value (20 g/L x3) was 29.898 ng. The “Val, Ratio treated/untreated” value (20 g/L x3) was 1.587, the “Val, Treated Mass” value (20 g/L x3) was 242.163 ng and the “a-AAA, Ratio treated/untreated” value (20 g/L x3) was 1.408. For the same compound, the “a-AAA, Treated Mass” value (20 g/L x3) was 4.352 ng, the “a-ABA, Ratio treated/untreated” value (20 g/L x3) was 3.555 and the “a-ABA, Treated Mass” value (20 g/L x3) was 9.898 ng. The “b-AiBA, Ratio treated/untreated” value (20 g/L x3) was 1.12, the “b-AiBA, Treated Mass” value (20 g/L x3) was 9.588 ng and the “b-Ala, Ratio treated/untreated” value (20 g/L x3) was 1.202. For the same compound, the “b-Ala, Treated Mass” value (20 g/L x3) was 232.373 ng, the “g-ABA, Ratio treated/untreated” value (20 g/L x3) was 1.811 and the “g-ABA, Treated Mass” value (20 g/L x3) was 1298.441 ng. For the same compound, the “Arg, Treated Mass” value (20 g/L x3, harvest 21 days after first application) was 2018.4554 ng.
